By EC50 is commonly meant the concentration giving half of the maximal effect.

This note sets out measurements from patent publication US11261186B2, “Biaryl derivative as GPR120 agonist” (LG CHEM, LTD., priority 2014, dated 2022).

SMILES strings stand for the structures. Bounds are passed on as bounds.

This experiment concerns the target T1, hGPR120 (Homo sapiens, UniProt Q5NUL3).
T1 construct: expressed in transfected cells; host or cells: CHO-K1
T1 sequence (Q5NUL3 1-361): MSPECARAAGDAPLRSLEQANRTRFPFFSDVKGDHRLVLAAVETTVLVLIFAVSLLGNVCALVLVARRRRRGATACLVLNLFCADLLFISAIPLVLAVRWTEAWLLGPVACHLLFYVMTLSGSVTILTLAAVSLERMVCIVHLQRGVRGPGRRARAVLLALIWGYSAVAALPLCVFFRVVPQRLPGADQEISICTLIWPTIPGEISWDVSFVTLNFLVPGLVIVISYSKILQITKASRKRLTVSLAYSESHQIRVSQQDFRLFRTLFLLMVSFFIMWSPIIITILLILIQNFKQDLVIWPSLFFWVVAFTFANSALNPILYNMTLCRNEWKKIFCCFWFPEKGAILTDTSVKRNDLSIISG
Description: Measurement of Activity of GPR120 Agonist (Cell-Based Assay), Calcium 5 dye fluorescence. The note with it: CHO-K1 cells expressing Ga16 and hGPR120. The method, then: CHO-K1 cells expressing Ga16 and hGPR120 were dispensed into each well of a 96-well plate (3×10^4 cells/100 μl/well) and then incubated in 5% CO2, 37° C. incubator for 18 hours. Each well was treated with 100 μl of Calcium 5 dye (Molecular Devices) solution including 2% DMSO and then incubated in 5% CO2, 37° C. incubator for 1 hour. Serially diluted GPR120 agonists were prepared to a final concentration of 0.5% DMSO in a 96-well plate. Each well was treated with 50 μl of the agonist compounds using Plexstation II, and then fluorescence was measured at Ex 485 nm and Em 525 nm.
Fluorescence increased by the serially diluted GPR120 agonists is calculated as a relative percent (%) value based on the fluorescence represented by the treatment of 1% DMSO only. […] The calculation of measurement was carried out by using statistical software (Prizm).
Activity is denoted based on the following criteria: […]

Consider `O=C(O)CC1CCN(c2c(F)cc(-c3nccc(Oc4ccccc4)n3)cc2F)CC1` [Example 510, 2-[1-[4-[4-phenoxy-pyrimidin-2-yl]-2,6-difluoro-phenyl]-4-piperidyl]acetic acid], for which the EC50 is under 200 nM.

Regarding `CCOc1cc(C)nc(-c2cc(F)c(N3CCC(CC(=O)O)CC3)c(F)c2)n1` [Example 349, 2-[1-[4-(4-ethoxy-6-methyl-pyrimidin-2-yl)-2,6-difluoro-phenyl]-4-piperidyl]acetic acid], the EC50 is under 200 nM.

As to `CN(CCCC(=O)O)c1c(F)cc(-c2cccc(NCC3CC3)c2)cc1F` [Example 466, 4-[4-[3-(cyclopropylmethylamino)phenyl]-2,6-difluoro-N-methyl-anilino]butanoic acid], the 50% effective concentration (EC50) is under 200 nM.

Take `CCCOc1cccc(-c2cc(F)c(OCCCC(=O)O)c(F)c2)c1` [Example 19, 4-(3,5-difluoro-3′-propoxy-biphenyl-4-yloxy)-butyric acid]: the EC50 is under 200 nM.

Turning to `COc1ccc(-c2cc(F)c(N3CC(CC(=O)O)C3)c(F)c2)c2c1OC(C)(C)C2` [Example 285, {1-[2,6-difluoro-4-(7-methoxy-2,2-dimethyl-2,3-dihydro-benzofuran-4-yl)-phenyl]-azetidin-3-yl}-acetic acid], the EC50 is 2000 to 20000 nM.

As to `CCOc1ccnc(-c2cc(F)c(N3CCC(CC(=O)O)C3)c(F)c2)n1` (centres unmarked) [Example 501, 2-{1-[2,6-difluoro-4-(4-ethoxy-pyrimidin-2-yl)phenyl]pyrrolidin-3-yl}acetic acid], the EC50 is under 200 nM.

Take `CC(C)Oc1ccnc(-c2cc(F)c(N3CCC(CC(=O)O)C3)c(F)c2)n1` (centres unmarked) [Example 500, 2-{1-[2,6-difluoro-4-(4-isopropoxy-pyrimidin-2-yl)phenyl]pyrrolidin-3-yl}acetic acid]: the EC50 was under 200 nM.

For the compound `O=C(O)CC1CCN(c2c(F)cc(-c3cccnc3SC3CCC3)cc2F)CC1` [Example 118, 2-[1-[4-(2-cyclobutylsulfanyl-3-pyridyl)-2,6-difluoro-phenyl]-4-piperidyl]acetic acid], the EC50 fell in the range of 200 to 2000 nM.

As for `Cc1cnc(OC2CCCC2)c(-c2cc(F)c(N(C)CCCC(=O)O)c(F)c2)c1` [Example 217, 4-{[4-(2-cyclopentyloxy-5-methyl-pyridin-3-yl)-2,6-difluoro-phenyl]-methyl-amino}-butyric acid], the EC50 is under 200 nM.

As for `Oc1cc(CCNc2c(F)cc(-c3cccnc3OC3CCCC3)cc2F)on1` [Example 90, 5-[2-[4-[2-(cyclopentoxy)-3-pyridyl]-2,6-difluoro-anilino]ethyl]isoxazol-3-ol], the EC50 lay within 200 to 2000 nM.

With `Cc1nc(-c2cc(F)c(N3CCC(CC(=O)O)CC3)c(F)c2)nc(OC2CCC2)c1C` [Example 384, 2-[1-[4-[4-(cyclobutoxy)-5,6-dimethyl-pyrimidin-2-yl]-2,6-difluoro-phenyl]-4-piperidyl]acetic acid], the EC50 is 2000 to 20000 nM.

As to `O=C(O)CC1CCN(c2c(F)cc(-c3cncc(NC4CCCC4)n3)cc2F)CC1` [Example 357, 2-[1-[4-[6-(cyclopentylamino)pyrazin-2-yl]-2,6-difluoro-phenyl]-4-piperidyl]acetic acid], the EC50 fell in the range of 200 to 2000 nM.

For the compound `Cc1cc(OCC2CC2)nc(-c2cc(F)c(N3CCC(CC(=O)O)CC3)c(F)c2)n1` [Example 331, 2-[1-[4-[4-(cyclopropylmethoxy)-6-methyl-pyrimidin-2-yl]-2,6-difluoro-phenyl]-4-piperidyl]acetic acid], the 50% effective concentration (EC50) fell in the range of 200 to 2000 nM.

On to `O=C(O)CCCOc1ccc(-c2cccnc2OCC2CCC2)cc1F` [Example 241, 4-[4-(2-cyclobutylmethoxy-pyridin-3-yl)-2-fluoro-phenoxy]-butyric acid], for which the EC50 is under 200 nM.

For `O=C(O)CCCSc1ccc(-c2cccc3c2OC(F)(F)O3)cc1` [Example 155, 4-[4-(2,2-difluoro-benzo[1,3]dioxol-4-yl)-phenylsulfanyl]-butyric acid], the EC50 was under 200 nM.

For `CC(CCCC(=O)O)c1c(F)cc(-c2cccc(OC3CCC3)c2)cc1F` (centres unmarked) [Example 410, 5-(3′-cyclobutoxy-3,5-difluoro-biphenyl-4-yl)-hexanoic acid], the EC50 was under 200 nM.

In the case of `O=C(O)CC1CCN(c2c(F)cc(-c3cccc(NC4CCCC4)n3)cc2F)CC1` [Example 358, 2-[1-[4-[6-(cyclopentylamino)-2-pyridyl]-2,6-difluoro-phenyl]-4-piperidyl]acetic acid], the 50% effective concentration (EC50) fell in the range of 200 to 2000 nM.

For `CC(C)Oc1cccc(-c2ccc3c(c2)CCC(CCC(=O)O)O3)n1` (centres unmarked) [Example 452, 3-[6-(6-isopropoxy-2-pyridyl)chroman-2-yl]propanoic acid], the EC50 is under 200 nM.

As to `CCN(CC)c1cncc(-c2cc(F)c(N3CCC(CC(=O)O)C3)c(F)c2)n1` (centres unmarked) [Example 506, 2-{1-[2,6-difluoro-4-(6-diethylamino-pyrazin-2-yl)phenyl]pyrrolidin-3-yl}acetic acid], the EC50 lay within 200 to 2000 nM.

As to `O=C(O)C[C@H]1CCN(c2c(F)cc(-c3cccc(OCC4CC4)n3)cc2F)C1` [Example 438, {(R)-1-[4-(6-cyclopropylmethoxy-pyridin-2-yl)-2,6-difluoro-phenyl]-pyrrolidin-3-yl}-acetic acid], the EC50 is under 200 nM.

In the case of `O=C(O)CCCOc1ccc(-c2cccc3c2OC2(CCCC2)O3)cc1F` [Example 289, 4-(2-fluoro-4-spiro[1,3-benzodioxol-2,1′-cyclopentan]-4-yl-phenoxy)butanoic acid], the EC50 was in the range of 200 to 2000 nM.

On to `O=C(O)C1CC1COc1c(F)cc(-c2cncc(OCC3CC3)n2)cc1F` (centres unmarked) [Example 547, 2-[4-(6-cyclopropylmethoxy-pyrazin-2-yl)-2,6-difluoro-phenoxymethyl]-cyclopropanecarboxylic acid], for which the EC50 lay within 200 to 2000 nM.

With `O=C(O)CCC1CCc2cc(-c3cccc(OC4CCCC4)c3)ccc2O1` (centres unmarked) [Example 448, 3-[6-[3-(cyclopentoxy)phenyl]chroman-2-yl]propanoic acid], the EC50 is under 200 nM.

In the case of `O=C(O)CCCOc1ccc(-c2cccnc2OC2CCC2)cc1F` [Example 233, 4-[4-(2-cyclobutoxy-pyridin-3-yl)-2-fluoro-phenoxy]-butyric acid], the 50% effective concentration (EC50) was in the range of 200 to 2000 nM.

For the compound `O=C(O)CCc1ccc2cc(-c3ccccc3Oc3ccccc3)ccc2c1` [Example 142, 3-[6-(2-phenoxy-phenyl)-naphthalen-2-yl]-propanoic acid], the EC50 lay in the range of 200 to 2000 nM.

On to `CCCSc1ncccc1-c1cc(F)c(N2CCC(CC(=O)O)CC2)c(F)c1` [Example 117, 2-[1-[2,6-difluoro-4-(2-propylsulfanyl-3-pyridyl)phenyl]-4-piperidyl]acetic acid], for which the EC50 is under 200 nM.

For the compound `CN(CCCC(=O)O)c1c(F)cc(-c2cccc(OCC3CCC3)n2)cc1F` [Example 522, 4-{[4-(6-cyclobutylmethoxy-pyridin-2-yl)-2,6-difluoro-phenyl]-methyl-amino}-butyric acid], the EC50 was under 200 nM.

As for `O=C(O)CCCOc1c(F)cc(-c2cccc(OC3CCC3)n2)cc1Cl` [Example 385, 4-[2-chloro-4-[6-(cyclobutoxy)-2-pyridyl]-6-fluoro-phenoxy]butanoic acid], the EC50 is under 200 nM.

Turning to `Cc1cc(Oc2ccc(C(F)(F)F)cc2)nc(-c2cc(F)c(N3CCC(CC(=O)O)CC3)c(F)c2)n1` [Example 612, 2-[1-[2,6-difluoro-4-[4-methyl-6-[4-(trifluoromethyl)phenoxy]pyrimidin-2-yl]phenyl]-4-piperidyl]acetic acid], the EC50 lay within 2000 to 20000 nM.
